Measurements: paper PMC3026091 (Antiviral research, 2010)

Tests used:
[1] = target: T1, Bovine pancreatic trypsin (Bos taurus, UniProt P00760); assay: Steady-state kinetics of inhibitors of trypsin; format: biochemical; conditions: BOC-GRR-AMC fluorogenic substrate; for Mechanism (trypsin): mechanism of trypsin inhibition
T1 sequence (P00760 24-246): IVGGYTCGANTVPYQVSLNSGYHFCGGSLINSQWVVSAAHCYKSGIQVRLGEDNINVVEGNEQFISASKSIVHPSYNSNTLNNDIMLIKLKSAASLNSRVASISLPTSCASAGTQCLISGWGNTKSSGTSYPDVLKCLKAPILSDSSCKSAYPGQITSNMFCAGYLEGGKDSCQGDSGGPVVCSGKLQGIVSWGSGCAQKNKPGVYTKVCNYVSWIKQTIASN

DEN2V NS2B-NS3pro = format: biochemical, dengue 2 virus (strain TSV01); conditions: mechanism of inhibition of DEN2V NS2B-NS3pro, Dynafit model selection
[2] = target: T1, Bovine pancreatic trypsin; assay: Trypsin inhibition assay with chromogenic BAPNA substrate; format: biochemical; conditions: analog 100 µM, trypsin 60 µM, BAPNA 500 µM; data not shown

SMILES | Mechanism (trypsin) [1] | Mechanism (DEN2V NS2B-NS3pro) | Ki ([1]; read-out: Ki2 trypsin, 50 nM trypsin) [µM] | Inhibition of trypsin cleavage of the chromogenic substrate BAPNA [2]
N=C(N)c1ccccc1 [Benzamidine, reference compound] | Competitive |  |  | 
O=C1c2c(O)ccc([N+](=O)[O-])c2C(=O)c2c([N+](=O)[O-])ccc(O)c21 [ARDP0006] | uncompetitive trypsin inhibitor | competitive inhibition model | 13 ± 0.1 | inhibited trypsin cleavage of the fluorogenic substrate but not the chromogenic substrate
